The results in this text go back to ChEMBL document CHEMBL1201862, “PubChem BioAssay data set” (2004).

Molecules are shown by their SMILES. Calls of active or inactive are those of the source. Where only a bound is given, the exact number is not on record here.

In general, AC50 refers to the concentration at which the activity in the assay is half-maximal. As usually defined, the IC50 is the concentration needed to halve the response being measured.

Series [1] has as its target T1, Cytochrome P450 2D6 (Homo sapiens, UniProt P10635).
Series [2] concerns the target Cytochrome P450 2C19 (Homo sapiens, UniProt P33261). Description: Cytochrome panel assay with activity outcomes. Panel member name: p450-cyp2c19 Compounds with AC50 equal or less than 10 uM are considered active. It counts as functional.
Series [3] has as its target Dual specificity tyrosine-phosphorylation-regulated kinase 1A (Rattus norvegicus, UniProt Q63470). It counts as biochemical, Homo sapiens.
Series [4] can be described thus: cytotoxicity toward DRD oncogenic fibroblasts, dose response, cell-based, non-viral oncogenic, luminescence (AID 1934). The series is classed as functional. The conditions noted are these: Homo sapiens.
Series [5] addresses SUMO-activating enzyme (Homo sapiens, UniProt Q9UBT2). Description: SUMOylation inhibitor hit validation, confirmation, SUMOylation inhibitor project, biochemical, AlphaScreen (AID 2018). It counts as functional. (Alpha assays give light when donor and acceptor beads are brought close together.)
Series [6] concerns BJ. Description: cytotoxicity toward BJ-TERT fibroblasts, dose response, cell-based, RAS-independent, luminescence (AID 1933). As to conditions: Homo sapiens. It counts as functional.
Series [7] relates to BJ. Description: cells. The series is classed as functional, cell-based. As to conditions: Homo sapiens.
Series [8] has as its system BJ. Description: cytotoxicity toward BJ-TERT-LT-ST fibroblasts, dose response, cell-based, RAS-independent, luminescence (AID 1935).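 Also: BJ fibroblasts immortalized with TERT plus LT and ST oncogenes.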 It counts as functional. The conditions noted are these: Homo sapiens.
In series [9] the target is T2, Bcl-2-related protein A1 (Mus musculus, UniProt Q07440).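 Also: confirmatory dose–response counterscreen on Bfl-1, used to check hits from a UBC13 polyubiquitin inhibitor campaign.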
T2 sequence (Q07440 whole entry): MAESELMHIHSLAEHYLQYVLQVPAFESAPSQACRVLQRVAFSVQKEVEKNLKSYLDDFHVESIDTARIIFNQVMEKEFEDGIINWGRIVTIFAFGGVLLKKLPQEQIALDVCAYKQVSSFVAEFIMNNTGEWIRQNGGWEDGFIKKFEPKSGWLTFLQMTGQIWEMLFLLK
It counts as functional.

The target in series [10] is T3, Ubiquitin-conjugating enzyme E2 N (Homo sapiens, UniProt P61088).
T3 sequence (P61088 whole entry): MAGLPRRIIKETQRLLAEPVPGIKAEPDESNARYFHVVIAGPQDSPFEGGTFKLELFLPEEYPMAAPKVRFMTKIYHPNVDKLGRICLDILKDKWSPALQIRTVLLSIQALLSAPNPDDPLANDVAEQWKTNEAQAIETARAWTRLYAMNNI
It counts as functional.

Series [11] has as its target T3, Ubiquitin-conjugating enzyme E2 N. It counts as functional. This is another data set of the same source.
For series [12], the target named is T4, Coagulation factor XII (Homo sapiens, UniProt P00748).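 Also: activated factor XIIa alpha cleaving a fluorogenic AMC peptide substrate; inhibitor potency from loss of enzyme activity.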
T4 sequence (P00748 whole entry): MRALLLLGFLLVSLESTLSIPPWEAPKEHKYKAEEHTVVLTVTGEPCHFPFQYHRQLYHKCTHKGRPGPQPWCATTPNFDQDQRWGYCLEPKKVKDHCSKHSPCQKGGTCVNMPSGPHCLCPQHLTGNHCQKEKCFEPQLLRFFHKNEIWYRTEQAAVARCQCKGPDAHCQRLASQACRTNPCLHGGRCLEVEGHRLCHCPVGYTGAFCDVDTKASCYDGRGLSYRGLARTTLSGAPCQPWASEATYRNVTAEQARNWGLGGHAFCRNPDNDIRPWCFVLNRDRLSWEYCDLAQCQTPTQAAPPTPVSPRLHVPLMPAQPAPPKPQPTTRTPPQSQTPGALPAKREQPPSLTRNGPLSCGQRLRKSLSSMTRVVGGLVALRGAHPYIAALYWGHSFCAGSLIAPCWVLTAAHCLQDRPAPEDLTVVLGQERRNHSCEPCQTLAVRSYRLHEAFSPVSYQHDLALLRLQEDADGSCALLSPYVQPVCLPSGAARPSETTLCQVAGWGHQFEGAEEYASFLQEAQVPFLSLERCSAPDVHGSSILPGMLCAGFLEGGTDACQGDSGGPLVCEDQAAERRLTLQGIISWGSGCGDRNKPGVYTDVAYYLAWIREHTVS
It counts as functional.

In series [13] the test system is HEK293. Description: inhibitors of LMP1-driven NF-kB reporter, dose response, cell-based, HEK293, luciferase, cherry-pick (AID 588343). As to conditions: Homo sapiens. It counts as functional.
The target of series [14] is Heat shock protein HSP 90-alpha (Homo sapiens, UniProt P07900). It counts as functional, organism-based.
For series [15], the system named is HEK293. Description: cells. As to conditions: Homo sapiens.
The test system of series [16] is HEK293. Description: cells. As to conditions: Homo sapiens. The source holds these as a separate data set.
Series [17] addresses Nonstructural protein 1 (Influenza A virus, UniProt Q194T2). The series is classed as functional, Influenza A virus (A/California/07/2009(H1N1)).
The target of series [18] is Phospholipase A2 (Homo sapiens, UniProt P04054). The series is classed as functional.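 Also: confirmatory dose-response counterscreen on phospholipase A2, testing hits that came from an ultra-high-throughput screen for ATG4B inhibitors.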
For series [19], the target named is T5, Cysteine protease ATG4B (Homo sapiens, UniProt Q9Y4P1).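 Also: Fluorescence-based dose-response confirmation assay measuring inhibition of ATG4B activity.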
T5 sequence (Q9Y4P1 whole entry): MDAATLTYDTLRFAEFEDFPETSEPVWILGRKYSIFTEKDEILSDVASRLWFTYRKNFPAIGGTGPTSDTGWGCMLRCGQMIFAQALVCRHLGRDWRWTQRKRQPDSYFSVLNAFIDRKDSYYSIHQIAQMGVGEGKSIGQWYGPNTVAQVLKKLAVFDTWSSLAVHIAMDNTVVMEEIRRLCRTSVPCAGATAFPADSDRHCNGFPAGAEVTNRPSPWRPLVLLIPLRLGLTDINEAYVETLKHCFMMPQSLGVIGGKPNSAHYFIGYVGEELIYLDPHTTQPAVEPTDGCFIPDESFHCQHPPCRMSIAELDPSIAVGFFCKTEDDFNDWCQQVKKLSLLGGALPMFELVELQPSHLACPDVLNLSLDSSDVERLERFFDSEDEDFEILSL
The series is classed as functional.

The target in series [20] is Dual specificity protein kinase CLK1 (Homo sapiens, UniProt P49759). Description: CLK1 kinase inhibitors, off-target check, dose response, selectivity assay for Dyrk1A inhibitor project, biochemical, cherry-picked samples (AID 588811).
In series [21] the target is T6, Cytochrome P450 1A2 (Homo sapiens, UniProt P05177).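 Also: PubChem cytochrome P450 panel assay, CYP1A2 panel member.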
T6 sequence (P05177 whole entry): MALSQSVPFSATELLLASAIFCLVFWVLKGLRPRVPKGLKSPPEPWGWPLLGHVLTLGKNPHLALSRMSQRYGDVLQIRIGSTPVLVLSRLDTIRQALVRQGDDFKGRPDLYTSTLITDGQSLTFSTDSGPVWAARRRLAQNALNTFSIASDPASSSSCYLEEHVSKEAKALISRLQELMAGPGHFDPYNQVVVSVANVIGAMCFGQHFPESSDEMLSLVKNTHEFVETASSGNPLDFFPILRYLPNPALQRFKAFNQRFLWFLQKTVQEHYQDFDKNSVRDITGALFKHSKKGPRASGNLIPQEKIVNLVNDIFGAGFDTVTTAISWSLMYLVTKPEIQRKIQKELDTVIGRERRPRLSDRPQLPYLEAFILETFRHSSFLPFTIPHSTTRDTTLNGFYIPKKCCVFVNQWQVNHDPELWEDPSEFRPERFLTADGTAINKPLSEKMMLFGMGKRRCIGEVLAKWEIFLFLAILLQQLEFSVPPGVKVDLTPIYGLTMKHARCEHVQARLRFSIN

Series [22] has as its target T7, Endoribonuclease toxin MazF (Escherichia coli K-12, UniProt P0AE70).
T7 sequence (P0AE70 whole entry): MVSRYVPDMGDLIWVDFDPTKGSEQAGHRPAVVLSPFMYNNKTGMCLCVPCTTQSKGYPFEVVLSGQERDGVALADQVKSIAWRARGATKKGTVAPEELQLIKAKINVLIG
Description: fluorescent RNA oligo signal without MazF, dose response, counter-screen for MazEF activator project, biochemical, fluorescence, single-stranded RNase substrate (AID 588502). The series is classed as functional.

Series [23] has as its target T7, Endoribonuclease toxin MazF. Description: MazF toxin RNase activators, dose response, biochemical, fluorescence, single-stranded RNA substrate, uHTS hits (AID 588481). The series is classed as functional.
For series [24], the target named is T8, Corticotropin-releasing factor receptor 2/Corticotropin-releasing factor-binding protein (Homo sapiens, UniProt P24387+Q13324).
T8 sequence (Q13324 whole entry): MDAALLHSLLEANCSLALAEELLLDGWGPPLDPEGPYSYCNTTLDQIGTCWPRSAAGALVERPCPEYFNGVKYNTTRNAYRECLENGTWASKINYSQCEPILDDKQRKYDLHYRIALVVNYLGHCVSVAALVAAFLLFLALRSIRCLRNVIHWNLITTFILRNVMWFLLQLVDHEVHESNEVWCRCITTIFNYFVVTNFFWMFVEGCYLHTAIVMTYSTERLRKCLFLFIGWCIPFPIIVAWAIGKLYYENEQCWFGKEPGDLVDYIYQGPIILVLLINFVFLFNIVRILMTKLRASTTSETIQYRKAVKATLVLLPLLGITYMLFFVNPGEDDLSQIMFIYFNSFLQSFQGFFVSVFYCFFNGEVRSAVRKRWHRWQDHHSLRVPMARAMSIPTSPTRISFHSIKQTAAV
T8 sequence (P24387 whole entry): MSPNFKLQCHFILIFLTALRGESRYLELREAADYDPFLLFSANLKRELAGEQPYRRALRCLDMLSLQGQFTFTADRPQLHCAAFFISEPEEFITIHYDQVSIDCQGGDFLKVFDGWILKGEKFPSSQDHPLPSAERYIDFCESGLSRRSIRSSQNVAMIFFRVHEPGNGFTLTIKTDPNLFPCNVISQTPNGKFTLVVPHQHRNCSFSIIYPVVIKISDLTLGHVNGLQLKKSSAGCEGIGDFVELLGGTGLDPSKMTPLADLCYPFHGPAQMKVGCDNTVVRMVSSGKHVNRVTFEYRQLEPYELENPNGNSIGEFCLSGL
Description: activators of CRF receptor 2 with binding protein – uHTS hits, confirmation (AID 602473). As to conditions: read-out: EC50_Mean. The series is classed as functional.

A short description of series [25]: cells. It counts as functional.
Series [26] has as its target Cytochrome P450 3A4 (Homo sapiens, UniProt P08684).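 Also: CYP3A4 tested as one member of a cytochrome P450 panel screen.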
In series [27] the target is T1, Cytochrome P450 2D6. This is another data set of the same source.
The target of series [28] is Cytochrome P450 2C9 (Homo sapiens, UniProt P11712).
Chain of Cytochrome P450 2C9 (P11712 whole entry): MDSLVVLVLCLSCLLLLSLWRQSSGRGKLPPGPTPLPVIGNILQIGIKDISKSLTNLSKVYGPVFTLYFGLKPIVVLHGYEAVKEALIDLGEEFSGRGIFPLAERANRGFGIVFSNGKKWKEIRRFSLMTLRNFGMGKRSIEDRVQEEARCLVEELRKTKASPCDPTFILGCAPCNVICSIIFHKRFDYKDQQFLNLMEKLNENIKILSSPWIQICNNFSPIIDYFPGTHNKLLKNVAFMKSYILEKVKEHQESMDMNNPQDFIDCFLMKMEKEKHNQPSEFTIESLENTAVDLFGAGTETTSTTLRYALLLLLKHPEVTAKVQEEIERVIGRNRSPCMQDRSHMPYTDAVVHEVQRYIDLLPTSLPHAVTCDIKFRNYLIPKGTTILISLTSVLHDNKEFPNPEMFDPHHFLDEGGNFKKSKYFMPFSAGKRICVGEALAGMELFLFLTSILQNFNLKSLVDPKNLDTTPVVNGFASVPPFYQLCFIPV

T1 sequence (P10635 whole entry): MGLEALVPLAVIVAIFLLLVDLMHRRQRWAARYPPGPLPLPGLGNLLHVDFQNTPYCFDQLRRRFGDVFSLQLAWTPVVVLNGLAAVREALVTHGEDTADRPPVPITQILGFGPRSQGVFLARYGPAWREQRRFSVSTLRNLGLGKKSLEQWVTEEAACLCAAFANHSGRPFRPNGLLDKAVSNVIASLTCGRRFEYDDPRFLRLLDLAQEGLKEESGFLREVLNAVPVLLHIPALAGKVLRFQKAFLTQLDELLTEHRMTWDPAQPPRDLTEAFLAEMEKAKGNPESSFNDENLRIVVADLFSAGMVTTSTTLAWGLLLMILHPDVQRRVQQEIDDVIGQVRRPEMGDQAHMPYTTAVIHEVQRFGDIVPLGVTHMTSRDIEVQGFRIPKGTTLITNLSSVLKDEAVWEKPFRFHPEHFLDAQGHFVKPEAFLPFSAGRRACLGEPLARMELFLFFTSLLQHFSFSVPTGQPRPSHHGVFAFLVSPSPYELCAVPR
Chain of Dual specificity protein kinase CLK1 (P49759 whole entry): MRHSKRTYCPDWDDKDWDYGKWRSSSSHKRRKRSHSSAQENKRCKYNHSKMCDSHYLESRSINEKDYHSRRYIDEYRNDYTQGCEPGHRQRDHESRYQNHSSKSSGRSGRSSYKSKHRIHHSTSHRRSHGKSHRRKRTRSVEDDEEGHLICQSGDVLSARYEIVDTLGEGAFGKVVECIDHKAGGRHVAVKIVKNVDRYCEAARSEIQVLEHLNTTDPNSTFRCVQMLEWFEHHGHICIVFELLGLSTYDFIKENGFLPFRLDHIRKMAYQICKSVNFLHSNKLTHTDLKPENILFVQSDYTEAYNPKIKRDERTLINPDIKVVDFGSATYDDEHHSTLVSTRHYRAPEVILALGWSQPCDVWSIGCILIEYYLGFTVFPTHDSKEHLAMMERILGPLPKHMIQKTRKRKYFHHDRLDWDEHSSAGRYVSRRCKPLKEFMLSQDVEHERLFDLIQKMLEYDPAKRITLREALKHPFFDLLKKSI
Chain of Phospholipase A2 (P04054 whole entry): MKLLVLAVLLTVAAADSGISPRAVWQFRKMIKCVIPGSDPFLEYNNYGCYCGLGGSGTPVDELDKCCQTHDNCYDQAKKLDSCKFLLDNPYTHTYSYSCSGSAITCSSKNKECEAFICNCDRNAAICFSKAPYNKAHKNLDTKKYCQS
Chain of Nonstructural protein 1 (Q194T2 whole entry): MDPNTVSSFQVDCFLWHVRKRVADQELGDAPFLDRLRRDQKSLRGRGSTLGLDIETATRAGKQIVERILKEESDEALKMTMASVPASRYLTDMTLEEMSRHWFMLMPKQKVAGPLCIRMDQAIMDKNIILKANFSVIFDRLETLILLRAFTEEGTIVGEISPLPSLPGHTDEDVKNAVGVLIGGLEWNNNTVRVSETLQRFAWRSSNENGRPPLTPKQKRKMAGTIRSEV
Chain of Cytochrome P450 3A4 (P08684 whole entry): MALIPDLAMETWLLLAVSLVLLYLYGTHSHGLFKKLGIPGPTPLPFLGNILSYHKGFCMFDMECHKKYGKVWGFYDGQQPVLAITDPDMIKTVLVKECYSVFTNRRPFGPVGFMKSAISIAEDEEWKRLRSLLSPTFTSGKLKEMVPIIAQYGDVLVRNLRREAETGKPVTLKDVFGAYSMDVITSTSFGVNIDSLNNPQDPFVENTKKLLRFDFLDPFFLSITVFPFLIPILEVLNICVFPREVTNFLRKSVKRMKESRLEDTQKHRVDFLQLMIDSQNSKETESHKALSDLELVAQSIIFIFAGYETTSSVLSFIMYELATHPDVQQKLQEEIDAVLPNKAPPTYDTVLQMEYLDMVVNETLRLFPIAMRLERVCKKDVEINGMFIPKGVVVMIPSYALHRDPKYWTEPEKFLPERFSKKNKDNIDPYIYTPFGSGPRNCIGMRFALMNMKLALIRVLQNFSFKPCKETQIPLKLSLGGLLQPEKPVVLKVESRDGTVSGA
Chain of SUMO-activating enzyme (Q9UBE0 whole entry): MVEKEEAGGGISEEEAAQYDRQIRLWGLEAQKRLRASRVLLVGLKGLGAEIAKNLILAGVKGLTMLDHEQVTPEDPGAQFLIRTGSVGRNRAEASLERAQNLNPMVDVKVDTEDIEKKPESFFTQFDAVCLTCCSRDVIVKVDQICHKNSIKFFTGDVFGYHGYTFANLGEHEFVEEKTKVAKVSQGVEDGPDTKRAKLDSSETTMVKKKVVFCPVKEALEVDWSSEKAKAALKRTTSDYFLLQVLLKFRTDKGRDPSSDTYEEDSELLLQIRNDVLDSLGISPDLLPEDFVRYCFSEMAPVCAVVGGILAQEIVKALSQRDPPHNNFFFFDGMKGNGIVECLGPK
Chain of SUMO-activating enzyme (Q9UBT2 whole entry): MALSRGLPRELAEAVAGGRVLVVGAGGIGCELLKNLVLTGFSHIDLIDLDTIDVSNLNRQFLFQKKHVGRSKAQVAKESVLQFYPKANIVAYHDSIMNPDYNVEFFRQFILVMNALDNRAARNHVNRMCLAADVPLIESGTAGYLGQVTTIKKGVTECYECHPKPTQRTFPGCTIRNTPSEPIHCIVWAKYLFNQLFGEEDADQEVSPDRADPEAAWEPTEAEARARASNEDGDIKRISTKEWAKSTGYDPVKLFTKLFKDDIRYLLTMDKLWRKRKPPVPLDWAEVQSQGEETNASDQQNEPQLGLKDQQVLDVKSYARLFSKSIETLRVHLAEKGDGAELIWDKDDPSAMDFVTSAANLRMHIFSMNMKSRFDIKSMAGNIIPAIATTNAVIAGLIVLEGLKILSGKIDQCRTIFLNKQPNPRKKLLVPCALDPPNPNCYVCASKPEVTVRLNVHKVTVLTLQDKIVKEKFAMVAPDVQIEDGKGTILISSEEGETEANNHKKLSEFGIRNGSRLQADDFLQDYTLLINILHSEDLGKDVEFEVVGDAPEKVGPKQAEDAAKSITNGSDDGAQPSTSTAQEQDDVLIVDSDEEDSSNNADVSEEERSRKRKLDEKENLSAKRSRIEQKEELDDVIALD
Chain of Cytochrome P450 2C19 (P33261 whole entry): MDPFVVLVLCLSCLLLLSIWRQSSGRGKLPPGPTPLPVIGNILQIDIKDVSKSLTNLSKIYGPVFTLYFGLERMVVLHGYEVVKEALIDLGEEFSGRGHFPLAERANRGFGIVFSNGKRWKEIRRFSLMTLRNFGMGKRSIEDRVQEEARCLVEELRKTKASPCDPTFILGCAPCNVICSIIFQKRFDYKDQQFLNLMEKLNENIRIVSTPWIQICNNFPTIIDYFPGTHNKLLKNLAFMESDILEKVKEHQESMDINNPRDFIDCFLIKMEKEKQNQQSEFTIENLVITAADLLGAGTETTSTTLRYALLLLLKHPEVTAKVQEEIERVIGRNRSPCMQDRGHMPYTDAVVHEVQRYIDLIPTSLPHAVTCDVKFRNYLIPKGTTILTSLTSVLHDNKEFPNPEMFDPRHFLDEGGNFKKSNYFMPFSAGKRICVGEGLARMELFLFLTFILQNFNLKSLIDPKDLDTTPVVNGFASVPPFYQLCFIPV

For `Cn1c(=O)c2nc(CCCCc3nc4ccccc4[nH]3)[nH]c2n(C)c1=O`, the AC50 result in series [1] and in series [2] was “inconclusive” in each case.

Turning to `Cc1cc2c(ccc3nonc32)[nH]1`, in series [3], the AC50 was 5.79 µM (active).

For the compound `O=C(N/N=C/c1ccc([N+](=O)[O-])o1)c1cc(-c2ccc(-c3ccccc3)cc2)nc2ccccc12`, the EC50 was 8.03 µM (inconclusive) in series [4], 9.46 µM (inconclusive) in series [6], 4.52 µM (inconclusive) in [7] and 11.2 µM (active) in series [8]. In addition, in [5], the IC50 was 15.4 µM (active).

Regarding `COc1ccc(C(=O)Nn2c(C)nc3ccccc3c2=O)cc1`, the results for the IC50 in series [9], in series [10] and in series [11] were > 20 µM (inactive), 6.37 µM (active) and 10.6 µM (active), respectively.

As for `CCOc1ncccc1C(=O)OCC(=O)Nc1ccc(C(N)=O)cc1`, the IC50 in [12] was > 50 µM (inactive).

With `CC(=NNC(S)=Nc1ccccc1Cl)c1ccccn1`, the AC50 in series [13] was 0.0577 µM (active); in series [14], 3.46 µM (active). Also, the EC50 in series [15] and in series [16] was > 59.6 µM (inactive) each time. Moreover, in [17], the IC50 is 21.7 µM (active).

For `COc1ccc(N(C(=O)c2snc(C(N)=O)c2N)C(C(=O)NC2CCCC2)c2ccco2)cc1OC` (centres undefined), the IC50 in [9] was > 20 µM (inactive); in series [10] it was 7.43 µM (active); in [11] it was 12 µM (active).

`N=C1/C(=C/c2ccc(O)cc2)C(=O)N=C2SN=C(SCc3ccccc3)N12`: the IC50 is 13.3 µM (active) in series [18] and 20.4 µM (inactive) in series [19].

As to `Clc1ccc(CNc2nccc(-c3ccc4[nH]ncc4c3)n2)cc1Cl`, the AC50 in [20] is 0.00677 µM (active).

Regarding `CCN=C=NCCCN(C)C`, the AC50 entry in [1] is “inconclusive”; in [21], 5.01 µM (inconclusive).

As for `O=[N+]([O-])c1ccc(-c2cn3nc(-c4ccccc4)c(-c4ccccc4)nc3n2)cc1`, the values for the EC50 in [22], in [23] and in [24] were > 99 µM (inactive), > 99 µM (inactive) and > 53 µM (inactive), respectively.

As to `COc1cccc(NC(=O)c2sc(NC(=O)c3ccncc3)nc2C)c1`, the AC50 in [20] is 22.2 µM (active); in [3], 32.4 µM (active).

For `O=C(O)COc1ccc2occ(C(=O)c3ccccc3)c2c1`, in series [25], the IC50 was 12.3 µM (active). In addition, in series [3], the AC50 is 6.49 µM (active).

With `Clc1ccc(CNc2ncncc2-c2ccc3c(c2)OCO3)cc1`, in series [20], the AC50 was 10 µM (active).

For the compound `Fc1ccc(NCc2ccccc2F)cc1Cl`, the values for the AC50 in [26], in series [27] and in series [28] were 20 µM (inconclusive), 17.8 µM (inconclusive) and 31.6 µM (inconclusive), respectively. The IC50 in [18] is 8.79 µM (active); in series [19], 13.3 µM (active).

`COc1ccc(CCNC(=O)CCn2c(=O)c3ccccc3n(CC(=O)NCC3CCCO3)c2=O)cc1OC` (centres undefined): in series [12], the IC50 was > 50 µM (inactive).
